Results on four compounds are retold here after paper PMC3575251, “Urease inhibitory activities of β-boswellic acid derivatives” (DARU Journal of Pharmaceutical Sciences, 2013).

The experiment has as its target T1, Jack bean urease (Canavalia ensiformis, UniProt P07374).
T1 construct: purchased Fluka Co, Switzerland
Description: biochemical. To be noted: for inhibition at 50 µg/mL: read-out: Percent of inhibition (50 μg/ml). On the procedure: For urease inhibition assays after addition of phosphate buffer pH = 6.8, sonication was performed for 3 min, followed by centrifugation and evaluating absorbance of upper solution in λ = 278 nm which is attributed to the urease. By using following equation […], where c is the concentration of solution (mol/L), b the Length of the UV cell, we can calculate the concentration of initially urease solution in this way. After appropriate dilution, the concentration of enzyme solution adjusted 2 mg/ml.
The assay mixture, containing 50 μl (2 mg/ml) of Jack-bean urease and 100 μl of different concentration of test compounds, which were dissolved in ethanol 20% previously, was added to 850 μl of 25mM urea and pre-incubated for 0.5 h in water bath at 37°C. The urease reaction was stopped after 30 min incubation by following procedure.
Urease activity was determined by measuring ammonia production using the indophenol method as described by Weatherburn. After pre-incubation, 500 μl of phenol reagent (1% w/v phenol and 0.005% w/v sodium nitroprusside) and 500 μl of alkali reagent (1% w/v NaOH and 0.075% active chloride NaOCl) were added to 100 μl of incubation mixture and kept at 37°C for 30 min.
The absorbance was measured at 625 nm. […] Percentage inhibitions were calculated using the formula (100 – (OD sample / OD control) × 100).
The concentration that provokes an inhibition halfway between the minimum and maximum response of each compound (relative IC50) was determined by monitoring the inhibition effect of various concentrations of compounds in the assay. The IC50 values were then calculated using GraphPad Prism 5 software.

A word on the IC50: it is the concentration that inhibits the measured activity by half. Read a high IC50 as weaker potency.

Each structure is given as a SMILES string.

T1 sequence (P07374 whole entry, looked up): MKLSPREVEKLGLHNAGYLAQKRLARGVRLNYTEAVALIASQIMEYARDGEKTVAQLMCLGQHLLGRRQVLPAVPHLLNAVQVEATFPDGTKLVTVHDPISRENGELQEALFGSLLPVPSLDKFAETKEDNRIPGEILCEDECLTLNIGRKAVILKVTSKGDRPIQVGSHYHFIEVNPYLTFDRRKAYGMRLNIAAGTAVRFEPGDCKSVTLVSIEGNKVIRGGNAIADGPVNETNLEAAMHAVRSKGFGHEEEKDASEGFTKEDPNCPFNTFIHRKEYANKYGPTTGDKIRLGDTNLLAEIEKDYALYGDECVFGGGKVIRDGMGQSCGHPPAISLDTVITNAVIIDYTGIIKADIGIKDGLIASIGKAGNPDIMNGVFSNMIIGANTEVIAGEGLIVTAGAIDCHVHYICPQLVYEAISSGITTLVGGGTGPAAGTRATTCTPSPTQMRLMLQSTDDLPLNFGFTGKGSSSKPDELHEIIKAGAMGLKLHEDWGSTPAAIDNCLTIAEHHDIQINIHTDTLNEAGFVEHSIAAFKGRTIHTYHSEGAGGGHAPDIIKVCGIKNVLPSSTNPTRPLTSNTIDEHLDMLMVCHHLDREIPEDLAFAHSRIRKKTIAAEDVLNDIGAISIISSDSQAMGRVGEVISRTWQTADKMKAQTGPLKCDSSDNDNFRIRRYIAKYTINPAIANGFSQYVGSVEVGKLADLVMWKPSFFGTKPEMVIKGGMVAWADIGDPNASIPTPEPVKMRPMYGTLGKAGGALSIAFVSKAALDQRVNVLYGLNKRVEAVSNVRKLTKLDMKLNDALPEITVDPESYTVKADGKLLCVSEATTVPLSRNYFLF

As to `NC(N)=S` [Thiourea, thiourea, reference compound], the “Percent of inhibition (50 μg/ml)” value (50 μg/ml test compound, Jack bean urease, 25 mM urea, 37°C) stood at 88.0%.
Regarding `CC(=O)OC1CCC2(C)C(CCC3(C)C2C(O)C=C2C4C(C)C(C)CCC4(C)CCC23C)C1(C)C(=O)O` (stereo not drawn) [compound 2, 3-O-acetyl-11-hydroxy-β-boswellic acid], the midpoint of inhibition, the IC50, lay at 9.21 ± 0.069 µM and the inhibition at 50 µg/mL was 56.2%.
`CC(=O)O[C@@H]1CC[C@@]2(C)[C@@H](CC[C@]3(C)[C@@H]2C(=O)C=C2[C@@H]4[C@@H](C)[C@H](C)CC[C@]4(C)CC[C@]23C)[C@@]1(C)C(=O)O` [compound 3, 3-O-acetyl-11-keto-β-boswellic acid]: half-maximal inhibition (IC50) required 16.34 ± 0.063 µM and the inhibition at 50 µg/mL stood at 37.4%.
The corresponding values for `C[C@H]1[C@H](C)CC[C@]2(C)CC[C@]3(C)C(=CC(=O)[C@@H]4[C@@]5(C)CC[C@@H](O)[C@](C)(C(=O)O)[C@@H]5CC[C@]43C)[C@H]12` [compound 4, 11-keto-β-boswellic acid] are 85.23 ± 0.065 µM and 39.1%.
